Data: ChEMBL document CHEMBL3885861, “Open TG-GATES”

Species on record: Rattus norvegicus
Test: Open TG-GATES - Regimen: Daily Repeat
Type: toxicity, organism-based, Sprague-Dawley
Parameters: regimen Daily Repeat, gender Male, age 6 weeks
Conditions: in vivo, po, 100 mg/kg, route gavage, dose level Low; for APTT / Bas / Eos / Fbg / Hb / Ht / Lym / MCH / MCHC / MCV / Mono / Neu / PT / Plat / RBC / Ret / WBC: tissue Blood; for KIDNEY_L / KIDNEY_R / KIDNEY_TOTAL: tissue Kidney; for LIVER: tissue Liver; for A/G / ALP / ALT / AST / BUN / CRE / Ca / Cl / DBIL / GLC / IP / K / LDH / Na / PL / RALB / TBIL / TC / TG / TP / gamma-GTP: tissue Plasma

CCOC(=O)CCC(=O)O[C@H]1[C@H](O[C@@H]2[C@@H](C)[C@H](O[C@H]3C[C@@](C)(OC)[C@@H](O)[C@H](C)O3)[C@@H](C)C(=O)O[C@H](CC)[C@@](C)(O)[C@H](O)[C@@H](C)C(=O)[C@H](C)C[C@@]2(C)O)O[C@H](C)C[C@@H]1N(C)C [ERYTHROMYCIN ETHYLSUCCINATE]
TERMINAL_BW (72 h, time 3 day): 235.5 g | APTT (72 h, time 3 day): 21.4 s | Bas (72 h, time 3 day): 0% | Eos (72 h, time 3 day): 1% | Fbg (72 h, time 3 day): 324.6 mg/dL | Hb (72 h, time 3 day): 13.4 g/dL | Ht (72 h, time 3 day): 39.4% | Lym (72 h, time 3 day): 83.4% | MCH (72 h, time 3 day): 20.7 pg | MCHC (72 h, time 3 day): 33.9% | MCV (72 h, time 3 day): 61.1 fL | Mono (72 h, time 3 day): 3% | Neu (72 h, time 3 day): 11.6% | PT (72 h, time 3 day): 15.9 s | Plat (72 h, time 3 day): 120.2 x10_4/uL | RBC (72 h, time 3 day): 645.4 x10_4/ul | Ret (72 h, time 3 day): 4.9% | WBC (72 h, time 3 day): 101.8 x10_2/uL | KIDNEY_L (72 h, time 3 day): 1 g | KIDNEY_R (72 h, time 3 day): 1 g | KIDNEY_TOTAL (72 h, time 3 day): 2 g | LIVER (72 h, time 3 day): 10.5 g | A/G (72 h, time 3 day): 1.2 | ALP (72 h, time 3 day): 1729.8 IU/L | ALT (72 h, time 3 day): 44.4 IU/L | AST (72 h, time 3 day): 77.2 IU/L | BUN (72 h, time 3 day): 18 mg/dL | CRE (72 h, time 3 day): 0.1 mg/dL | Ca (72 h, time 3 day): 10.3 mg/dL | Cl (72 h, time 3 day): 107.2 meq/L | DBIL (72 h, time 3 day): 0 mg/dL | GLC (72 h, time 3 day): 187.2 mg/dL | IP (72 h, time 3 day): 7.1 mg/dL | K (72 h, time 3 day): 4.4 meq/L | LDH (72 h, time 3 day): 179.8 IU/L | Na (72 h, time 3 day): 141.4 meq/L | PL (72 h, time 3 day): 130 mg/dL | RALB (72 h, time 3 day): 3 g/dL | TBIL (72 h, time 3 day): 0.024 mg/dL | TC (72 h, time 3 day): 69.2 mg/dL | TG (72 h, time 3 day): 72.2 mg/dL | TP (72 h, time 3 day): 5.5 g/dL | gamma-GTP (72 h, time 3 day): 1.2 IU/L | TERMINAL_BW ([…], time 7 day): 255.3 g | TERMINAL_BW ([…], time 14 day): 320.9 g | TERMINAL_BW ([…], time 28 day): 401.9 g | APTT ([…], time 7 day): 21.7 s | Bas ([…], time 7 day): 0% | Eos ([…], time 7 day): 0.8% | Fbg ([…], time 7 day): 311.8 mg/dL | Hb ([…], time 7 day): 13.6 g/dL | Ht ([…], time 7 day): 40% | Lym ([…], time 7 day): 84.6% | MCH ([…], time 7 day): 20.4 pg | MCHC ([…], time 7 day): 33.9% | MCV ([…], time 7 day): 60.1 fL | Mono ([…], time 7 day): 2.2% | Neu ([…], time 7 day): 11.4% | PT ([…], time 7 day): 16.8 s | Plat ([…], time 7 day): 107.9 x10_4/uL | RBC ([…], time 7 day): 667.2 x10_4/ul | Ret ([…], time 7 day): 5.3% | WBC ([…], time 7 day): 77.9 x10_2/uL | APTT ([…], time 14 day): 20.2 s | Bas ([…], time 14 day): 0% | Eos ([…], time 14 day): 1.2% | Fbg ([…], time 14 day): 338 mg/dL | Hb ([…], time 14 day): 13.8 g/dL | Ht ([…], time 14 day): 39.8% | Lym ([…], time 14 day): 82% | MCH ([…], time 14 day): 20.6 pg | MCHC ([…], time 14 day): 34.9% | MCV ([…], time 14 day): 59.1 fL | Mono ([…], time 14 day): 2.2% | Neu ([…], time 14 day): 13.8% | PT ([…], time 14 day): 16.3 s | Plat ([…], time 14 day): 113.3 x10_4/uL | RBC ([…], time 14 day): 673.2 x10_4/ul | Ret ([…], time 14 day): 4.7% | WBC ([…], time 14 day): 110.5 x10_2/uL | APTT ([…], time 28 day): 23.6 s | Bas ([…], time 28 day): 0% | Eos ([…], time 28 day): 1.2% | Fbg ([…], time 28 day): 339 mg/dL | Hb ([…], time 28 day): 15.1 g/dL | Ht ([…], time 28 day): 43.9% | Lym ([…], time 28 day): 86% | MCH ([…], time 28 day): 19.6 pg | MCHC ([…], time 28 day): 34.5% | MCV ([…], time 28 day): 56.8 fL | Mono ([…], time 28 day): 2% | Neu ([…], time 28 day): 9.4% | PT ([…], time 28 day): 16 s | Plat ([…], time 28 day): 107.2 x10_4/uL | RBC ([…], time 28 day): 772.2 x10_4/ul | Ret ([…], time 28 day): 2.7% | WBC ([…], time 28 day): 102.2 x10_2/uL | KIDNEY_L ([…], time 7 day): 1.1 g | KIDNEY_R ([…], time 7 day): 1.1 g | KIDNEY_TOTAL ([…], time 7 day): 2.2 g | KIDNEY_L ([…], time 14 day): 1.2 g | KIDNEY_R ([…], time 14 day): 1.3 g | KIDNEY_TOTAL ([…], time 14 day): 2.5 g | KIDNEY_L ([…], time 28 day): 1.4 g | KIDNEY_R ([…], time 28 day): 1.4 g | KIDNEY_TOTAL ([…], time 28 day): 2.9 g | LIVER ([…], time 7 day): 11.1 g | LIVER ([…], time 14 day): 13.3 g | LIVER ([…], time 28 day): 16.2 g | A/G ([…], time 7 day): 1.1 | ALP ([…], time 7 day): 1592.6 IU/L | ALT ([…], time 7 day): 36.4 IU/L | AST ([…], time 7 day): 64.6 IU/L | BUN ([…], time 7 day): 18.4 mg/dL | CRE ([…], time 7 day): 0.2 mg/dL | Ca ([…], time 7 day): 10.5 mg/dL | Cl ([…], time 7 day): 108.2 meq/L | DBIL ([…], time 7 day): 0 mg/dL | GLC ([…], time 7 day): 194.2 mg/dL | IP ([…], time 7 day): 7 mg/dL | K ([…], time 7 day): 4.2 meq/L | LDH ([…], time 7 day): 129 IU/L | Na ([…], time 7 day): 141.2 meq/L | PL ([…], time 7 day): 135.8 mg/dL | RALB ([…], time 7 day): 2.9 g/dL | TBIL ([…], time 7 day): 0 mg/dL | TC ([…], time 7 day): 68.6 mg/dL | TG ([…], time 7 day): 111.4 mg/dL | TP ([…], time 7 day): 5.5 g/dL | gamma-GTP ([…], time 7 day): 1.6 IU/L | A/G ([…], time 14 day): 1.2 | ALP ([…], time 14 day): 1442.8 IU/L | ALT ([…], time 14 day): 36.8 IU/L | AST ([…], time 14 day): 66 IU/L | BUN ([…], time 14 day): 20.2 mg/dL | CRE ([…], time 14 day): 0.2 mg/dL | Ca ([…], time 14 day): 10.7 mg/dL | Cl ([…], time 14 day): 107.2 meq/L | DBIL ([…], time 14 day): 0 mg/dL | GLC ([…], time 14 day): 196.8 mg/dL | IP ([…], time 14 day): 6.8 mg/dL | K ([…], time 14 day): 4.4 meq/L | LDH ([…], time 14 day): 150 IU/L | Na ([…], time 14 day): 142.2 meq/L | PL ([…], time 14 day): 150.2 mg/dL | RALB ([…], time 14 day): 3.1 g/dL | TBIL ([…], time 14 day): 0.005 mg/dL | TC ([…], time 14 day): 79 mg/dL | TG ([…], time 14 day): 102 mg/dL | TP ([…], time 14 day): 5.7 g/dL | gamma-GTP ([…], time 14 day): 2.2 IU/L | A/G ([…], time 28 day): 1.2 | ALP ([…], time 28 day): 1003.2 IU/L | ALT ([…], time 28 day): 37.8 IU/L | AST ([…], time 28 day): 59.2 IU/L | BUN ([…], time 28 day): 19.2 mg/dL | CRE ([…], time 28 day): 0.2 mg/dL | Ca ([…], time 28 day): 10.3 mg/dL | Cl ([…], time 28 day): 106.4 meq/L | DBIL ([…], time 28 day): 0 mg/dL | GLC ([…], time 28 day): 194.4 mg/dL | IP ([…], time 28 day): 6.9 mg/dL | K ([…], time 28 day): 4.1 meq/L | LDH ([…], time 28 day): 114 IU/L | Na ([…], time 28 day): 141.8 meq/L | PL ([…], time 28 day): 152 mg/dL | RALB ([…], time 28 day): 3.1 g/dL | TBIL ([…], time 28 day): 0.006 mg/dL | TC ([…], time 28 day): 78.8 mg/dL | TG ([…], time 28 day): 127.4 mg/dL | TP ([…], time 28 day): 5.9 g/dL | gamma-GTP ([…], time 28 day): 2.2 IU/L
